Tested on: 855422-203-R-J1-PDC complex spheroid viability
Assay: Anticancer human tumor 855422-203-R-J1-PDC patient-derived bladder carcinoma cell line growth inhibition [POLQ]
Details: for IC50: curve of first compound; for viability, T/C: stronger effect = lower value; active = viability on the fitted dose curve at most 10% of control; inactive = the rest
How it was run: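 Patient-derived tumour cells were co-cultured with HUVEC and mesenchymal stem cells as multicellular spheroids at 37 °C. They were treated with POLQ inhibitors (novobiocin, ART-558, RP6685) alone or combined with other agents. Top concentrations were at or near clinical Cmax (otherwise 10 microM; SN-38 at 1 microM), decreasing in half-log steps.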

[1] = second compound 0.0316 µM, first compound 0.0316 µM
[2] = second compound 0.0316 µM, first compound 0.1 µM
[3] = second compound 0.0316 µM, first compound 0.316 µM
[4] = second compound 0.0316 µM, first compound 1 µM
[5] = second compound 0.0316 µM, first compound 3.16 µM
[6] = second compound 0.0316 µM, first compound 10 µM
[7] = second compound 0.1 µM, first compound 0.0316 µM
[8] = second compound 0.1 µM, first compound 0.1 µM
[9] = second compound 0.1 µM, first compound 0.316 µM
[10] = second compound 0.1 µM, first compound 1 µM
[11] = second compound 0.1 µM, first compound 3.16 µM
[12] = second compound 0.1 µM, first compound 10 µM
[13] = second compound 0.316 µM, first compound 0.0316 µM
[14] = second compound 0.316 µM, first compound 0.1 µM
[15] = second compound 0.316 µM, first compound 0.316 µM
[16] = second compound 0.316 µM, first compound 1 µM
[17] = second compound 0.316 µM, first compound 3.16 µM
[18] = second compound 0.316 µM, first compound 10 µM
[19] = second compound 1 µM, first compound 0.0316 µM
[20] = second compound 1 µM, first compound 0.1 µM
[21] = second compound 1 µM, first compound 0.316 µM
[22] = second compound 1 µM, first compound 1 µM
[23] = second compound 1 µM, first compound 3.16 µM
[24] = second compound 1 µM, first compound 10 µM
[25] = second compound 3.16 µM, first compound 0.0316 µM
[26] = second compound 3.16 µM, first compound 0.1 µM
[27] = second compound 3.16 µM, first compound 0.316 µM
[28] = second compound 3.16 µM, first compound 1 µM
[29] = second compound 3.16 µM, first compound 3.16 µM
[30] = second compound 3.16 µM, first compound 10 µM
[31] = second compound 10 µM, first compound 0.0316 µM
[32] = second compound 10 µM, first compound 0.1 µM
[33] = second compound 10 µM, first compound 0.316 µM
[34] = second compound 10 µM, first compound 1 µM
[35] = second compound 10 µM, first compound 3.16 µM
[36] = second compound 10 µM, first compound 10 µM
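Note: spheroids exposed to compounds for seven days before readout.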

COc1ccc([C@@H](O)c2cc(-c3ncnc4cc(N5CCOCC5)ccc34)c(F)cc2Cl)nn1 + COC1C(OC(N)=O)C(O)C(Oc2ccc3c(O)c(NC(=O)c4ccc(O)c(CC=C(C)C)c4)c(=O)oc3c2C)OC1(C)C
6.5 µM: IC50 (second compound 0.1 µM) | IC50 (second compound 3.16 µM)
6.47 µM: IC50 (second compound 0.0316 µM)
inactive: viability, T/C [1] 107% | viability, T/C [2] 102% | viability, T/C [3] 95.7% | viability, T/C [4] 81.1% | viability, T/C [5] 71.9% | viability, T/C [6] 37.7% | viability, T/C [7] 90.4% | viability, T/C [8] 113% | viability, T/C [9] 101% | viability, T/C [10] 89.8% | viability, T/C [11] 68.6% | viability, T/C [12] 39.1% | viability, T/C [13] 119% | viability, T/C [14] 121% | viability, T/C [15] 101% | viability, T/C [16] 86.9% | viability, T/C [17] 64.5% | viability, T/C [18] 41.9% | viability, T/C [19] 110% | viability, T/C [20] 108% | viability, T/C [21] 93.8% | viability, T/C [22] 98.7% | viability, T/C [23] 68.7% | viability, T/C [24] 35.3% | viability, T/C [25] 109% | viability, T/C [26] 107% | viability, T/C [27] 106% | viability, T/C [28] 84.8% | viability, T/C [29] 73.2% | viability, T/C [30] 37.2% | viability, T/C [31] 121% | viability, T/C [32] 110% | viability, T/C [33] 110% | viability, T/C [34] 91.2% | viability, T/C [35] 71.7% | viability, T/C [36] 36.9%
6.58 µM: IC50 (second compound 0.316 µM)
6.48 µM: IC50 (second compound 10 µM)
6.17 µM: IC50 (second compound 1 µM)

CCc1cc2c(N3CCc4c(cc(Cn5ccnc5)cc4-c4cn(C)nc4C(F)(F)F)C3=O)cc(C)nc2c(OC)n1 + COC1C(OC(N)=O)C(O)C(Oc2ccc3c(O)c(NC(=O)c4ccc(O)c(CC=C(C)C)c4)c(=O)oc3c2C)OC1(C)C
1.45 µM: IC50 (second compound 0.1 µM)
2.8 µM: IC50 (second compound 0.0316 µM)
2.12 µM: IC50 (second compound 3.16 µM)
1.64 µM: IC50 (second compound 0.316 µM)
1.75 µM: IC50 (second compound 1 µM)
inactive: viability, T/C [1] 89.1% | viability, T/C [2] 78.2% | viability, T/C [3] 75.6% | viability, T/C [4] 71.5% | viability, T/C [5] 45.7% | viability, T/C [6] 25.3% | viability, T/C [7] 105% | viability, T/C [8] 80% | viability, T/C [9] 65.4% | viability, T/C [10] 58.9% | viability, T/C [11] 43.9% | viability, T/C [12] 24.5% | viability, T/C [13] 106% | viability, T/C [14] 90.2% | viability, T/C [15] 67.8% | viability, T/C [16] 63% | viability, T/C [17] 39.6% | viability, T/C [18] 23.5% | viability, T/C [19] 114% | viability, T/C [20] 79.6% | viability, T/C [21] 76.3% | viability, T/C [22] 63.3% | viability, T/C [23] 41.1% | viability, T/C [24] 25.9% | viability, T/C [25] 91.2% | viability, T/C [26] 86% | viability, T/C [27] 75.4% | viability, T/C [28] 62% | viability, T/C [29] 43.7% | viability, T/C [30] 25.4% | viability, T/C [31] 83.2% | viability, T/C [32] 73.8% | viability, T/C [33] 62.7% | viability, T/C [34] 56.6% | viability, T/C [35] 35.8% | viability, T/C [36] 22.1%
1.22 µM: IC50 (second compound 10 µM)

Source: PubChem BioAssay AID1963838 (Molecular Pharmacology Branch, DTP, NCI, 2024)
